The values below come from US20120115869A1, “TETRAZOLE DERIVATIVES” (MERCK SERONO S.A., priority 2009, published 2012).

The test addresses T1, CRTH2 (DP2) (Homo sapiens, UniProt Q9Y5Y4).
T1 construct: host or cells: CHO cells
T1 sequence (Q9Y5Y4 1-395): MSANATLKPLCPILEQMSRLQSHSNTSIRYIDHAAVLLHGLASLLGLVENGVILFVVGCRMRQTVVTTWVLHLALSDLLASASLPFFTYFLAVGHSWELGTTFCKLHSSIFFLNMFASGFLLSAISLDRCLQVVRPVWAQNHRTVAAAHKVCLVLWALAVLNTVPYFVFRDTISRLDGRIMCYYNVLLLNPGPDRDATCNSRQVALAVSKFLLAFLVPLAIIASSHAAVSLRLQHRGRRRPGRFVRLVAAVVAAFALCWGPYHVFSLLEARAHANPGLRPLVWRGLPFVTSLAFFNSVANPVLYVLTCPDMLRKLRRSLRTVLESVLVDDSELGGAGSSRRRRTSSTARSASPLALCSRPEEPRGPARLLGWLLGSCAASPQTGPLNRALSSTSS
The experiment in a line: Radioligand binding Scintillation Proximity Assay ([3H]PGD2, hCRTH2-CHO cell membranes). The conditions noted are these: 1.5 nM [3H]PGD2, hCRTH2-CHO cell membranes, SPA. The method, then:
Adherent CHO cells expressing hCRTH2 (Euroscreen, Belgium) were cultured in 225 cm^2 cell culture flasks (Corning, USA) in 30 ml of medium. After two rinses of phosphate buffered saline (PBS), cells were harvested in 10 ml of PBS containing 1 mM EDTA, centrifuged at 500×g for 5 min at 4° C. and frozen at −80° C. The pellet was re-suspended in 50 mM Tris-HCl, pH 7.4, 2 mM EDTA, 250 mM Sucrose, containing protease inhibitor cocktail tablets, (Complete EDTA-free, Roche, Germany) and incubated 30 min at 4° C. Cells were disrupted by nitrogen cavitation (Parr Instruments, USA) at 4° C. (800 p.s.i. for 30 min), and centrifuged at 500×g for 10 min at 4° C. Pellet containing nuclei and cellular debris was discarded and supernatant was centrifuged 60 min at 4° C. at 45000×g. Membrane pellet was re-suspended in storage buffer (10 mM HEPES/KOH pH 7.4, 1 mM EDTA, 250 mM sucrose, protease inhibitor cocktail tablets) using Dounce homogenization and frozen in liquid nitrogen, and stored at 80° C.
Non-specific binding was determined in the presence of 10 μM PGD2 (Cayman, USA). Competing Compounds of Formula (I) were diluted in dimethylsulphoxide so that the total volume of dimethylsulfoxide was kept constant at 1% dimethylsulphoxide (Me2SO). Serial dilutions of […] were prepared and 10 μl each of the compounds of Formula (I) stock solutions were added to the binding assay reagents and incubated for 90 min with agitation at room temperature.
A general note: SPA uses beads or plates that emit light when radiolabelled molecules are held near them.
As a reminder, the IC50 is the midpoint of a concentration-inhibition curve. Lower therefore signals higher potency. As to `CCCC(=O)N(Cc1ccc2c(c1)OCCO2)c1cccc(-c2nnn[nH]2)c1` [Example 19, N-(2,3-dihydro-1,4-benzodioxin-6-ylmethyl)-N-[3-(1H-tetrazol-5-yl)phenyl]butanamide], the IC50 is 15 nM.
The molecule `CCCCC(=O)N(Cc1cccc(OC(F)(F)F)c1)c1cc(F)cc(-c2nnn[nH]2)c1` [Example 29, N-[3-fluoro-5-(1H-tetrazol-5-yl)phenyl]-N-[3-(trifluoromethoxy)benzyl]pentanamide] had an IC50 of 5.2 nM.
On to `CCCCC(=O)N(Cc1cc2ccccc2o1)c1cc(-c2nnn[nH]2)ccc1F` [Example 12, N-(1-benzofuran-2-ylmethyl)-N-[2-fluoro-5-(1H-tetrazol-5-yl)phenyl]pentanamide], for which the IC50 was 8.6 nM.
Turning to `C#Cc1cccc(CN(C(C)=O)c2cc(-c3nnn[nH]3)ccc2F)c1` [Example 2, N-(3-ethynylbenzyl)-N-[2-fluoro-5-(1H-tetrazol-5-yl)phenyl]acetamide], the IC50 stood at 175 nM.
The figure for `CCC(=O)N(Cc1cccc(OC(C)C)c1)c1cc(F)cc(-c2nnn[nH]2)c1` [Example 75, N-[3-fluoro-5-(1H-tetrazol-5-yl)phenyl]-N-(3-isopropoxybenzyl)propanamide] is 7.1 nM; for `CCC(=O)N(Cc1nonc1C)c1cccc(-c2nnn[nH]2)c1` [Example 44, N-[(4-methyl-1,2,5-oxadiazol-3-yl)methyl]-N-[3-(1H-tetrazol-5-yl)phenyl]propanamide] it is 2100 nM; for `CCC(=O)N(Cc1ccc(O)cc1)c1cc(F)cc(-c2nnn[nH]2)c1` [Example 114, N-[3-fluoro-5-(1H-tetrazol-5-yl)phenyl]-N-(4-hydroxybenzyl)propanamide] it is 25 nM.
`CCC(=O)N(Cc1cccc(C#CCOC)c1)c1cccc(-c2nnn[nH]2)c1` [Example 47, N-[3-(3-methoxyprop-1-yn-1-yl)benzyl]-N-[3-(1H-tetrazol-5-yl)phenyl]propanamide]: the IC50 is 1140 nM.
Regarding `CCC(=O)N(Cc1ccc(Cl)c(OC(F)(F)F)c1)c1cc(F)cc(-c2nnn[nH]2)c1` [Example 76, N-[4-chloro-3-(trifluoromethoxy)benzyl]-N-[3-fluoro-5-(1H-tetrazol-5-yl)phenyl]propanamide], the IC50 is 18 nM.
The figure for `CCC(=O)N(Cc1cccc(-c2ccn[nH]2)c1)c1cc(F)cc(-c2nnn[nH]2)c1` [Example 115, N-[3-fluoro-5-(1H-tetrazol-5-yl)phenyl]-N-[3-(1H-pyrazol-5-yl)benzyl]propanamide] is 30 nM.
`CCC(=O)N(Cc1ccc([S+]([O-])C(F)(F)F)cc1)c1cc(F)cc(-c2nnn[nH]2)c1` (stereo not drawn) [Example 113, N-[3-fluoro-5-(1H-tetrazol-5-yl)phenyl]-N-{4-[(trifluoromethyl)sulfinyl]benzyl}propanamide] gave a half-inhibitory concentration (IC50) of 3.5 nM.
`CCC(=O)N(Cc1cccc(SC(F)(F)F)c1)c1cc(F)cc(-c2nnn[nH]2)c1` [Example 77, N-[3-fluoro-5-(1H-tetrazol-5-yl)phenyl]-N-{3-[(trifluoromethyl)thio]benzyl}propanamide] registered a 50% inhibitory concentration (IC50) of 16 nM.
Then `CCC(=O)N(Cc1ccc(OC(F)(F)F)cc1)c1cccc(-c2nnn[nH]2)c1` [Example 22, N-[3-(1H-tetrazol-5-yl)phenyl]-N-[4-(trifluoromethoxy)benzyl]propanamide], with 132 nM; and `CCC(=O)N(Cc1ccc(OC(F)(F)F)cc1)c1cc(F)cc(-c2nnn[nH]2)c1` [Example 36, N-[3-fluoro-5-(1H-tetrazol-5-yl)phenyl]-N-[4-(trifluoromethoxy)benzyl]propanamide], with 9.3 nM.
Regarding `CCC(=O)N(Cc1ccncc1)c1cccc(-c2nnn[nH]2)c1` [Example 52, N-(pyridin-4-ylmethyl)-N-[3-(1H-tetrazol-5-yl)phenyl]propanamide], the 50% inhibitory concentration (IC50) amounted to 6680 nM.
The molecule `CCC(=O)N(Cc1ccc(-c2cn(C)nc2C)cc1)c1cc(F)cc(-c2nnn[nH]2)c1` [Example 88, N-[4-(1,3-dimethyl-1H-pyrazol-4-yl)benzyl]-N-[3-fluoro-5-(1H-tetrazol-5-yl)phenyl]propanamide] yielded an IC50 of 21 nM.
In turn, `CCC(=O)N(Cc1cccc(F)c1)c1cccc(-c2nnn[nH]2)c1` [Example 32, N-(3-fluorobenzyl)-N-[3-(1H-tetrazol-5-yl)phenyl]propanamide] displayed an IC50 of 1690 nM.
Molecule `CS(=O)(=O)c1ccc(CN(C(=O)c2cccnc2)c2cc(F)cc(-c3nnn[nH]3)c2)cc1` [Example 116, N-[3-fluoro-5-(1H-tetrazol-5-yl)phenyl]-N-[4-(methylsulfonyl)benzyl]nicotinamide] yielded a half-inhibitory concentration (IC50) of 4.6 nM.
Regarding `CCC(=O)N(Cc1cccs1)c1cccc(-c2nnn[nH]2)c1` [Example 17, N-[3-(1H-tetrazol-5-yl)phenyl]-N-(2-thienylmethyl)propanamide], the IC50 turned out to be 1590 nM.
In turn, `CCCCC(=O)N(Cc1cccc(O)c1)c1cccc(-c2nnn[nH]2)c1` [Example 79, N-(3-hydroxybenzyl)-N-[3-(1H-tetrazol-5-yl)phenyl]pentanamide] showed an IC50 of 140 nM.
The molecule `CCCCC(=O)N(Cc1cccs1)c1cccc(-c2nnn[nH]2)c1` [Example 16, N-[3-(1H-tetrazol-5-yl)phenyl]-N-(2-thienylmethyl)pentanamide] registered an IC50 of 588 nM.
The figure for `CCC(=O)N(Cc1cccc([S+]([O-])C(F)(F)F)c1)c1cc(F)cc(-c2nnn[nH]2)c1` (stereo not drawn) [Example 112, N-[3-fluoro-5-(1H-tetrazol-5-yl)phenyl]-N-{3-[(trifluoromethyl)sulfinyl]benzyl}propanamide] is 19 nM.
Consider `CCC(=O)N(Cc1ccccc1)c1cccc(-c2nnn[nH]2)c1` [Example 30, N-benzyl-N-[3-(1H-tetrazol-5-yl)phenyl]propanamide], for which the IC50 is 2250 nM.
`CCC(=O)N(Cc1cccc(-c2cccnc2)c1)c1cc(F)cc(-c2nnn[nH]2)c1` [Example 81, N-[3-fluoro-5-(1H-tetrazol-5-yl)phenyl]-N-(3-pyridin-3-ylbenzyl)propanamide] displayed an IC50 of 34 nM.
`CCCCC(=O)N(Cc1ccc2ccccc2c1)c1cc(-c2nnn[nH]2)ccc1F` [Example 6, N-[2-fluoro-5-(1H-tetrazol-5-yl)phenyl]-N-(2-naphthylmethyl)pentanamide]: the half-maximal inhibitory concentration (IC50) was 23 nM.
The figure for `Cc1cc(C(=O)N(Cc2ccc(S(C)(=O)=O)cc2)c2cc(F)cc(-c3nnn[nH]3)c2)n(C)n1` [Example 110, N-[3-fluoro-5-(1H-tetrazol-5-yl)phenyl]-1,3-dimethyl-N-[4-(methylsulfonyl)benzyl]-1H-pyrazole-5-carboxamide] is 56 nM; for `CCC(=O)N(Cc1ccc(S(C)(=O)=O)cc1)c1cccc(-c2nnn[nH]2)c1` [Example 65, N-[4-(methylsulfonyl)benzyl]-N-[3-(1H-tetrazol-5-yl)phenyl]propanamide] it is 75 nM; for `CCCCC(=O)N(Cc1ccc2c(c1)OCCO2)c1cc(-c2nnn[nH]2)c(F)cc1F` [Example 10, N-[2,4-difluoro-5-(1H-tetrazol-5-yl)phenyl]-N-(2,3-dihydro-1,4-benzodioxin-6-ylmethyl)pentanamide] it is 54 nM.
Turning to `CCC(=O)N(Cc1ccc(-c2cccc(S(=O)(=O)NCCO)c2)cc1)c1cc(F)cc(-c2nnn[nH]2)c1` [Example 92, N-[3-fluoro-5-(1H-tetrazol-5-yl)phenyl]-N-[(3′-{[(2-hydroxyethyl)amino]sulfonyl}biphenyl-4-yl)methyl]propanamide], the IC50 worked out at 160 nM.
On to `CCC(=O)N(Cc1cccnc1)c1cccc(-c2nnn[nH]2)c1` [Example 51, N-(pyridin-3-ylmethyl)-N-[3-(1H-tetrazol-5-yl)phenyl]propanamide], for which the IC50 came to 6750 nM.
`CCC(=O)N(Cc1ccc2ccccc2n1)c1cc(F)cc(-c2nnn[nH]2)c1` [Example 80, N-[3-fluoro-5-(1H-tetrazol-5-yl)phenyl]-N-(quinolin-2-ylmethyl)propanamide] registered an IC50 of 65 nM.
The molecule `CS(=O)(=O)c1ccc(CN(C(=O)C2CCOCC2)c2cc(F)cc(-c3nnn[nH]3)c2)cc1` [Example 118, N-[3-fluoro-5-(1H-tetrazol-5-yl)phenyl]-N-[4-(methylsulfonyl)benzyl]tetrahydro-2H-pyran-4-carboxamide] came in with an IC50 of 32 nM.
Then `CCCCC(=O)N(Cc1ccc(OC)cc1)c1cccc(-c2nnn[nH]2)c1` [Example 14, N-(4-methoxybenzyl)-N-[3-(1H-tetrazol-5-yl)phenyl]pentanamide], with 61 nM.
